Type in all cases: cell-based, mouse
In test [1] the test system is ES cells. Put plainly: Cytosolic calcium measurement (fura-2) in ES cells. The following applies: Ca2+-free medium. The method, then:
It has been reported that calreticulin can regulate inositol 1,4,5-trisphosphate (InsP3)-mediated calcium signaling in Xenopus oocytes^9. To more specifically examine the role of calreticulin in the storage and mobilization of calcium from InsP3-sensitive stores, we challenged ES cells with lysophosphatidic acid (LPA, 100 nM), which induces InsP3 release12 via heterotrimeric G-protein -mediated activation of phospholipase C. […] The magnitude of this transient was indistinguishable in parental and clone 29 cells (FIG. 4b). […] These observations imply that the stores depleted by LPA represent a subset of the thapsigargin-sensitive compartment.
To measure cytosolic free calcium, the cells were loaded with fura-2 by incubation with 0.5-10 μM of the precursor acetoxymethyl ester for 20 min. at 37° C. Fura-2 ratio fluorescence measurements were performed on a Nikon Diaphot TMD microscope (Nikon Canada) equipped with a 100 W Xenon lamp, a shutter/rotating mirror/fiber optic assembly (RatioMaster, Photon Technologies), a Fluor 40x/1.3 oil-immersion objective and a high-sensitivity photometer (D-104, PTI) interfaced to a 386 computer (NEC) via a 12 bit A/D board (Labmaster, National Instruments). […] The intracellular concentration of fura-2 was measured at the isosbestic wavelength (360 nm) and compared to standards. […]

Test [2] deals with wild-type ES cells. Briefly: Serum-free cell attachment assay on fibronectin, wild-type ES cells. The following applies: peptide 0.5-1 mg/ml, antiserum 10 μg/ml. As to the method:
The adhesive capacities of the ES cell clones were assessed by quantitative cell attachment assays on fibronectin and laminin under serum-free conditions. […] ES cells lacking calreticulin also were impaired in their ability to adhere to anti-alpha5 beta1 integrin antibodies (FIG. 2a). The heterozygous clone (#34) was generally intermediate in its level of adhesion. None of the clones tested adhered to vitronectin (FIG. 2a). […] To ensure that the observed differences in cell adhesion were not due to differences in the level of expression of the relevant integrins, the cell surface levels of alpha5 beta1, alpha4, alpha6 and alphav beta3 integrins were assessed by flow cytometry. All clones tested expressed similar levels of integrin subunits (FIG. 2c).
Serum-free adhesion assays are described elsewhere^5. 0.5-1 mg/ml GRGDSP [SEQ ID No: 1] or GRGESP [SEQ. ID No: 2] peptide (Gibco/BRL), 10 μg/ml rabbit anti-fibronectin receptor (Gibco/BRL) or 10 μg/ml rat anti-alpha6 (GoH3, AMAC, Inc.) was added where indicated. For flow cytometric analysis of integrin expression, 1×10^6 cells were incubated on ice for 30 min. with primary antibody; anti-FNR, anti-VNR (Gibco/BRL), anti-alpha6 (GoH3) or anti-alpha429 in PBS/0.1% sodium azide/2.0% fetal bovine serum. […] Cells were fixed in PBS/1.0% paraformaldehyde, pelleted, resuspended in PBS and analyzed on a FACScan (Becton Dickinson Immunocytometry Systems).

Test [3] concerns calreticulin knock-out ES cells. Briefly: Adhesion of calreticulin knock-out ES cells to fibronectin. The method, then: FIG. 4E Adhesion assays to Fibronectin as in FIG. 6. Where indicated 100 nM LPA or 100 nM Tg and anti-FNR antiserum (10 μg/ml) were added. Open bars, parental ES cells; closed bars, knock-out ES cells. All data are means +/− SEM of at least 3 experiments. It is conceivable that a transient increase in cytosolic [Ca^2+] shortly after integrin ligand binding is an important part of normal receptor post-occupancy events (eg. increases in avidity, cytoskeletal reorganization). To examine this possibility, we tested whether stimulation of down-stream events in integrin ‘outside-in’ signaling within calreticulin-null cells could compensate for their adhesion defect. […] Although not shown in FIG. 4, the response to LPA was dose-dependent. […] Serum-free adhesion assays are described elsewhere^5. 0.5-1 mg/ml GRGDSP [SEQ ID No: 1] or GRGESP [SEQ. ID No: 2] peptide (Gibco/BRL), 10 μg/ml rabbit anti-fibronectin receptor (Gibco/BRL) or 10 μg/ml rat anti-alpha6 (GoH3, AMAC, Inc.) was added where indicated. For flow cytometric analysis of integrin expression, 1×10^6 cells were incubated on ice for 30 min. with primary antibody; anti-FNR, anti-VNR (Gibco/BRL), anti-alpha6 (GoH3) or anti-alpha429 in PBS/0.1% sodium azide/2.0% fetal bovine serum. […] Cells were fixed in PBS/1.0% paraformaldehyde, pelleted, resuspended in PBS and analyzed on a FACScan (Becton Dickinson Immunocytometry Systems).

For `C/C=C(/C)C(=O)O[C@H]1C(C)=C2[C@H]([C@@H]1OC(=O)CCCCCCC)[C@@](C)(OC(C)=O)C[C@H](OC(=O)CCC)[C@@]1(O)[C@H]2OC(=O)[C@@]1(C)O` [thapsigargin], the “Net Ca2+ release after prior LPA” value in test [1] (added after LPA) was “induced a second, smaller burst of net Ca^2+ release”.
As to GRGDSP [GRGDSP peptides, (Gibco/BRL)], the “Wild-type ES cell adhesion to fibronectin” value in test [2] is reported as “inhibited adhesion to fibronectin”.
In the case of lysophosphatidic acid [LPA], the “Adhesion of calreticulin knock-out cells to fibronectin” value in test [3] (100 nM) is reported as “significantly restored”. For the same compound, the “Dose dependence of the adhesion response of calreticulin knock-out cells” value in test [3] (data not shown in FIG. 4) is recorded as “dose-dependent”. Also, the “Cytosolic [Ca2+]i transient” value in test [1] (100 nM, parental and clone 29 cells) was “induced a rapid [Ca2+]i transient”.

The values above are taken from patent US6461865B1, “Calreticulin-deficient cells” (priority 1997, dated 2002).
